pIC50: −log10 of the molar value. Each block holds one compound with its values, some of them ahead of it.
Tested on: 317291-083-R-J1-PDC complex spheroids, viability
Assay: Anticancer human tumor 317291-083-R-J1-PDC patient-derived soft tissue sarcoma cell line growth inhibition [GQUAD]
Details: for pIC50: curve of first compound; for viability, T/C: stronger effect = lower value
Outline: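 Multi-cell-type spheroids of tumor cells with HUVEC and mesenchymal stem cells, treated with drug combinations. Concentrations descend in half-log steps from near clinical Cmax, or from 10 microM where Cmax is unknown; viability read-out.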

[1] = second compound 0.0316 µM, first compound 0.0316 µM
[2] = second compound 0.0316 µM, first compound 0.316 µM
[3] = second compound 0.1 µM, first compound 0.0316 µM
[4] = second compound 0.1 µM, first compound 0.316 µM
[5] = second compound 0.316 µM, first compound 0.0316 µM
[6] = second compound 0.316 µM, first compound 0.316 µM
[7] = second compound 1 µM, first compound 0.0316 µM
[8] = second compound 1 µM, first compound 0.316 µM
[9] = second compound 3.16 µM, first compound 0.0316 µM
[10] = second compound 3.16 µM, first compound 0.316 µM
[11] = second compound 10 µM, first compound 0.0316 µM
[12] = second compound 10 µM, first compound 0.316 µM
[13] = second compound 0.0316 µM, first compound 0.000999 µM
[14] = second compound 0.0316 µM, first compound 0.00316 µM
[15] = second compound 0.0316 µM, first compound 0.00999 µM
[16] = second compound 0.0316 µM, first compound 0.0999 µM
[17] = second compound 0.1 µM, first compound 0.000999 µM
[18] = second compound 0.1 µM, first compound 0.00316 µM
[19] = second compound 0.1 µM, first compound 0.00999 µM
[20] = second compound 0.1 µM, first compound 0.0999 µM
[21] = second compound 0.316 µM, first compound 0.000999 µM
[22] = second compound 0.316 µM, first compound 0.00316 µM
[23] = second compound 0.316 µM, first compound 0.00999 µM
[24] = second compound 0.316 µM, first compound 0.0999 µM
[25] = second compound 1 µM, first compound 0.000999 µM
[26] = second compound 1 µM, first compound 0.00316 µM
[27] = second compound 1 µM, first compound 0.00999 µM
[28] = second compound 1 µM, first compound 0.0999 µM
[29] = second compound 3.16 µM, first compound 0.000999 µM
[30] = second compound 3.16 µM, first compound 0.00316 µM
[31] = second compound 3.16 µM, first compound 0.00999 µM
[32] = second compound 3.16 µM, first compound 0.0999 µM
[33] = second compound 10 µM, first compound 0.000999 µM
[34] = second compound 10 µM, first compound 0.00316 µM
[35] = second compound 10 µM, first compound 0.00999 µM
[36] = second compound 10 µM, first compound 0.0999 µM
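Note: spheroids exposed to compounds for one week before readout.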
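Throughout, for viability, T/C: percent viability relative to DMSO vehicle wells taken as 100%.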

pIC50 (second compound 0.0316 µM): 5.68 | pIC50 (second compound 0.1 µM): 5.74 | pIC50 (second compound 0.316 µM): 6.28 | pIC50 (second compound 1 µM): > 7.50 | pIC50 (second compound 3.16 µM): > 7.50 | pIC50 (second compound 10 µM): > 7.50
SMILES: O=c1[nH]cc(F)c(=O)[nH]1 + Cc1cnc(CNC(=O)c2c(=O)c3ccc(N4CCCN(C)CC4)nc3n3c2sc2ccccc23)cn1
viability, T/C [1]: 101% | viability, T/C (second compound 0.0316 µM, first compound 0.1 µM): 96.3% | viability, T/C [2]: 103% | viability, T/C (second compound 0.0316 µM, first compound 1 µM): 64.6% | viability, T/C (second compound 0.0316 µM, first compound 3.16 µM): 44.3% | viability, T/C (second compound 0.0316 µM, first compound 10 µM): 24.6% | viability, T/C [3]: 68.2% | viability, T/C (second compound 0.1 µM, first compound 0.1 µM): 69.3% | viability, T/C [4]: 60.9% | viability, T/C (second compound 0.1 µM, first compound 1 µM): 79.8% | viability, T/C (second compound 0.1 µM, first compound 3.16 µM): 31.3% | viability, T/C (second compound 0.1 µM, first compound 10 µM): 24.7% | viability, T/C [5]: 51.8% | viability, T/C (second compound 0.316 µM, first compound 0.1 µM): 50.6% | viability, T/C [6]: 71.5% | viability, T/C (second compound 0.316 µM, first compound 1 µM): 40% | viability, T/C (second compound 0.316 µM, first compound 3.16 µM): 34.7% | viability, T/C (second compound 0.316 µM, first compound 10 µM): 23.3% | viability, T/C [7]: 35.2% | viability, T/C (second compound 1 µM, first compound 0.1 µM): 25.6% | viability, T/C [8]: 31% | viability, T/C (second compound 1 µM, first compound 1 µM): 32.7% | viability, T/C (second compound 1 µM, first compound 3.16 µM): 23.6% | viability, T/C (second compound 1 µM, first compound 10 µM): 22.5% | viability, T/C [9]: 31.2% | viability, T/C (second compound 3.16 µM, first compound 0.1 µM): 29.8% | viability, T/C [10]: 25.6% | viability, T/C (second compound 3.16 µM, first compound 1 µM): 49.5% | viability, T/C (second compound 3.16 µM, first compound 3.16 µM): 22.6% | viability, T/C (second compound 3.16 µM, first compound 10 µM): 15.1% | viability, T/C [11]: 21.4% | viability, T/C (second compound 10 µM, first compound 0.1 µM): 28% | viability, T/C [12]: 14.6% | viability, T/C (second compound 10 µM, first compound 1 µM): 26.5% | viability, T/C (second compound 10 µM, first compound 3.16 µM): 25.7% | viability, T/C (second compound 10 µM, first compound 10 µM): 16.4%

SMILES: CC[C@@]1(O)C(=O)OCc2c1cc1n(c2=O)Cc2cc3c(CN(C)C)c(O)ccc3nc2-1 + Cc1[nH]c2ccc(F)cc2c1-c1nc2c3cccnc3c3ncccc3c2[nH]1
pIC50 (second compound 0.0316 µM): 7.27 | pIC50 (second compound 0.1 µM): 7.21 | pIC50 (second compound 0.316 µM): 7.25 | pIC50 (second compound 1 µM): 7.22 | pIC50 (second compound 3.16 µM): 7.33 | pIC50 (second compound 10 µM): 7.61 | viability, T/C [13]: 97.6% | viability, T/C [14]: 92% | viability, T/C [15]: 83% | viability, T/C [1]: 72.3% | viability, T/C [16]: 25% | viability, T/C [2]: 14.7% | viability, T/C [17]: 106% | viability, T/C [18]: 91.9% | viability, T/C [19]: 91.2% | viability, T/C [3]: 87.6% | viability, T/C [20]: 22.5% | viability, T/C [4]: 17.7% | viability, T/C [21]: 96.9% | viability, T/C [22]: 97.9% | viability, T/C [23]: 90.9% | viability, T/C [5]: 75.7% | viability, T/C [24]: 24.1% | viability, T/C [6]: 9.9% | viability, T/C [25]: 98.8% | viability, T/C [26]: 96.6% | viability, T/C [27]: 108% | viability, T/C [7]: 74.4% | viability, T/C [28]: 30.9% | viability, T/C [8]: 9.35% | viability, T/C [29]: 97.6% | viability, T/C [30]: 100% | viability, T/C [31]: 80.4% | viability, T/C [9]: 64.6% | viability, T/C [32]: 26.2% | viability, T/C [10]: 9.6% | viability, T/C [33]: 63.8% | viability, T/C [34]: 69.1% | viability, T/C [35]: 84% | viability, T/C [11]: 43.7% | viability, T/C [36]: 18.7% | viability, T/C [12]: 8.82%

pIC50 (second compound 0.0316 µM): 6.61 | pIC50 (second compound 0.1 µM): 7.62 | pIC50 (second compound 0.316 µM): > 9.00 | pIC50 (second compound 1 µM): > 9.00 | pIC50 (second compound 3.16 µM): > 9.00 | pIC50 (second compound 10 µM): > 9.00
SMILES: Cn1ncnc1[C@H]1c2n[nH]c(=O)c3cc(F)cc(c23)N[C@@H]1c1ccc(F)cc1 + Cc1cnc(CNC(=O)c2c(=O)c3ccc(N4CCCN(C)CC4)nc3n3c2sc2ccccc23)cn1
viability, T/C [13]: 88.6% | viability, T/C [14]: 106% | viability, T/C [15]: 75.6% | viability, T/C [1]: 74% | viability, T/C [16]: 59.8% | viability, T/C [2]: 46.8% | viability, T/C [17]: 73.8% | viability, T/C [18]: 74.7% | viability, T/C [19]: 49.7% | viability, T/C [3]: 50.4% | viability, T/C [20]: 37.9% | viability, T/C [4]: 25.3% | viability, T/C [21]: 46.1% | viability, T/C [22]: 42.7% | viability, T/C [23]: 41.2% | viability, T/C [5]: 25.5% | viability, T/C [24]: 36.7% | viability, T/C [6]: 24.2% | viability, T/C [25]: 32.2% | viability, T/C [26]: 35.5% | viability, T/C [27]: 31.4% | viability, T/C [7]: 21.1% | viability, T/C [28]: 24.3% | viability, T/C [8]: 23.9% | viability, T/C [29]: 17.3% | viability, T/C [30]: 13.4% | viability, T/C [31]: 16.9% | viability, T/C [9]: 17.2% | viability, T/C [32]: 20.3% | viability, T/C [10]: 12.7% | viability, T/C [33]: 41% | viability, T/C [34]: 35.4% | viability, T/C [35]: 25.4% | viability, T/C [11]: 34.6% | viability, T/C [36]: 29.9% | viability, T/C [12]: 25.4%

Reference: PubChem BioAssay AID2060497 (Molecular Pharmacology Branch, DTP, NCI, 2025)
